Reference: US8022206B2 (OSI Pharmaceuticals, LLC, priority 2008, dated 2011)

Legend:
RON (human) = RON (human) (Homo sapiens, UniProt Q04912); experiment: RON (human) AlphaScreen kinase assay, Km of ATP; format: biochemical; details: AlphaScreen, Km of ATP; read-out: RON biochemical IC50
Procedure, shortened: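 Detection used PT66 AlphaScreen beads added in Tris pH 7.5/NaCl/EDTA/BSA buffer, read after 1 h incubation. Vehicle-only DMSO wells served as controls.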

MET (human) = MET (human) (Homo sapiens, UniProt P08581); experiment: MET (human) AlphaScreen kinase assay, Km of ATP; format: biochemical; details: AlphaScreen, Km of ATP; read-out: Met biochemical IC50
Sequence of MET (human) (P08581 25-1390): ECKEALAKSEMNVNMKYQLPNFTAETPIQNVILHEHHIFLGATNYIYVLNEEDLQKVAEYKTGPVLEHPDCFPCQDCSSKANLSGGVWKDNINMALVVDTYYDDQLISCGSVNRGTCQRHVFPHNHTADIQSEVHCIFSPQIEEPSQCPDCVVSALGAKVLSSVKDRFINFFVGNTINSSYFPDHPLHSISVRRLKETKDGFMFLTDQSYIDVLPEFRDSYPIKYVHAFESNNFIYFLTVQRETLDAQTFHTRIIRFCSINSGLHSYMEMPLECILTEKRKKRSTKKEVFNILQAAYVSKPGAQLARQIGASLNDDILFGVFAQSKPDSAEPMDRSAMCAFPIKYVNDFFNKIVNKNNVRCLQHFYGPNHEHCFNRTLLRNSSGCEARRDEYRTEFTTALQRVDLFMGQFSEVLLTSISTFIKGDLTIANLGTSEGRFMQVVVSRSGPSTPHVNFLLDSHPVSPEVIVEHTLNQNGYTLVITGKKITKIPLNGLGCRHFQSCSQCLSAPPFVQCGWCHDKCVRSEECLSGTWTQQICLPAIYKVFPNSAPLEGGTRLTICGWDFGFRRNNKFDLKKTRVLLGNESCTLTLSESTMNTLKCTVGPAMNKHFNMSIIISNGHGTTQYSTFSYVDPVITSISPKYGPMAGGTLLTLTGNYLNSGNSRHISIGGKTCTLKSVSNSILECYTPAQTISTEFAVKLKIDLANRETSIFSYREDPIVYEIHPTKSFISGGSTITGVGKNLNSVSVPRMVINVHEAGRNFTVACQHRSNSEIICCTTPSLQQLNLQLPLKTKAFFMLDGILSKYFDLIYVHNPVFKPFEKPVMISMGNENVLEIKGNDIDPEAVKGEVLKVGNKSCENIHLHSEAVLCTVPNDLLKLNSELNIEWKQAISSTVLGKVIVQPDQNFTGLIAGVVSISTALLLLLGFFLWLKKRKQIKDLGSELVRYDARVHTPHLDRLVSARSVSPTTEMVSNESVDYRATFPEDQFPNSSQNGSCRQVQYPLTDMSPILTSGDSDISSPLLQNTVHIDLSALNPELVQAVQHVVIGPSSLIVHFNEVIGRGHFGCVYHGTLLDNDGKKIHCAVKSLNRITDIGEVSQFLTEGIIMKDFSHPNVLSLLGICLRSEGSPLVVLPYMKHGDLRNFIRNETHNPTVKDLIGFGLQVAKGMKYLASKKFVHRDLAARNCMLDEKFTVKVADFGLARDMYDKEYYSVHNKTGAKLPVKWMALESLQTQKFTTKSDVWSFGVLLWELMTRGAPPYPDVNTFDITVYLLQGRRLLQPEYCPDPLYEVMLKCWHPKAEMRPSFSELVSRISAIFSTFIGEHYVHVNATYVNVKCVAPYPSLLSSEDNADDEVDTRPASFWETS
Procedure, shortened: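 Human MET at lot-optimised concentration in 50 mM Tris pH 7.4 buffer with 1 mM DTT, compound at 1% DMSO final; enzyme starts the reaction, 60 min at RT.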

Sequence of RON (human) (Q04912 25-1400): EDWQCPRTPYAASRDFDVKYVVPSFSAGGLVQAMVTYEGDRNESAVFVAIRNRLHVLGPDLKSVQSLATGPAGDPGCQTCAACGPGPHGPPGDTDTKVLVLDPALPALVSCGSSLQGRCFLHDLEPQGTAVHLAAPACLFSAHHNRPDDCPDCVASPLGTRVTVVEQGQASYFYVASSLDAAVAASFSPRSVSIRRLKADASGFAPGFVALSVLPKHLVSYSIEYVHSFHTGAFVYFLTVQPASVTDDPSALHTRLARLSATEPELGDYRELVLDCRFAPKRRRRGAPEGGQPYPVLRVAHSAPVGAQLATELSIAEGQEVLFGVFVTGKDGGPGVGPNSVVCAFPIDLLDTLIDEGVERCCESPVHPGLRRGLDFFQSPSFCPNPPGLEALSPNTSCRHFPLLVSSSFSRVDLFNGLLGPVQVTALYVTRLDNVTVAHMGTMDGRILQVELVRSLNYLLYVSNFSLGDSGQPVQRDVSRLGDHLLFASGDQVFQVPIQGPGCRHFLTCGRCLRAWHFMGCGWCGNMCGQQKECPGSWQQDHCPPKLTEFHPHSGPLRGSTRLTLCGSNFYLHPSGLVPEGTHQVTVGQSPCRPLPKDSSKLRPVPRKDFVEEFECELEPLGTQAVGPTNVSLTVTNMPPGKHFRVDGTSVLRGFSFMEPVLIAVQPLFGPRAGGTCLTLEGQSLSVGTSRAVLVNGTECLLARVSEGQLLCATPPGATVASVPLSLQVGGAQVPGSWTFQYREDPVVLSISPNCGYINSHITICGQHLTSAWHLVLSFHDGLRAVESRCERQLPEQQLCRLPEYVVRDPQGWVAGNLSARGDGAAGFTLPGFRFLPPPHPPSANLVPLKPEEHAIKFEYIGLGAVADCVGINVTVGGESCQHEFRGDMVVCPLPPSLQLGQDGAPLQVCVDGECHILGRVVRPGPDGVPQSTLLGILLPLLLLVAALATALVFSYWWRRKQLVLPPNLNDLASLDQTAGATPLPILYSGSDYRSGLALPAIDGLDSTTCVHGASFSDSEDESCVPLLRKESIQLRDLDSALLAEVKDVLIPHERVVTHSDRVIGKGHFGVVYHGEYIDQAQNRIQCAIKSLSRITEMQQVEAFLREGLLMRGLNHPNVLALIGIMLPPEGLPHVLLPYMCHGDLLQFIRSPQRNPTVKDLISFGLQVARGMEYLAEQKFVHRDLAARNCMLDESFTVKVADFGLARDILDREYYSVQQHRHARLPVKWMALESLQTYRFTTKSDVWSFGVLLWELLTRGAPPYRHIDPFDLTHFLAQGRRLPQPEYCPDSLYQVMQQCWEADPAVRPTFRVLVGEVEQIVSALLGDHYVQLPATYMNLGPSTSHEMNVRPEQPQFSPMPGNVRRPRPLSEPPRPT

Row | Structure (SMILES) | IC50 (RON (human)) | IC50 (MET (human))
1 | C[C@@H](Oc1c(N)ncc2c(C3=CCN(C(=O)[C@H](N)c4ccccc4)CC3)coc12)c1c(Cl)ccc(F)c1Cl [Example 262, (2R)-2-Amino-1-[4-{6-amino-7-[(1R)-1-(2,6-dichloro-3-fluoro-phenyl)ethoxy]furo[3,2-c]pyridin-3-yl}-3,6-dihydropyridin-1(2H)-yl]-2-phenylethanone] | < 500 nM | < 500 nM
2 | C[C@@H](Oc1c(N)ncc2c(C3=CCN(C(=O)[C@@H](N)Cc4cnc[nH]4)CC3)coc12)c1c(Cl)ccc(F)c1Cl [Example 263, (2S)-2-Amino-1-[4-{6-amino-7-[(1R)-1-(2,6-dichloro-3-fluoro-phenyl)ethoxy]furo[3,2-c]pyridin-3-yl}-3,6-dihydropyridin-1(2H)-yl]-3-(1H-imidazol-5-yl)propan-1-one] | < 500 nM | < 500 nM
3 | C[C@@H](Oc1c(N)ncc2c(C3=CCN(C(=O)[C@H](N)Cc4cnc[nH]4)CC3)coc12)c1c(Cl)ccc(F)c1Cl [Example 264, (2R)-2-Amino-1-[4-{6-amino-7-[(1R)-1-(2,6-dichloro-3-fluoro-phenyl)ethoxy]furo[3,2-c]pyridin-3-yl}-3,6-dihydropyridin-1(2H)-yl]-3-(1H-imidazol-5-yl)propan-1-one] | 5000 to 20000 nM | < 500 nM
4 | C[C@@H](Oc1c(N)ncc2c(C3=CCN(C(=O)[C@@H](O)c4ccccc4)CC3)coc12)c1c(Cl)ccc(F)c1Cl [Example 265, (2S)-1-[4-{6-Amino-7-[(1R)-1-(2,6-dichloro-3-fluorophenyl)ethoxy]furo[3,2-c]pyridin-3-yl}-3,6-dihydropyridin-1(2H)-yl]-2-hydroxy-2-phenylethanone] | < 500 nM | 500 to 5000 nM
5 | C[C@@H](Oc1c(N)ncc2c(C3=CCN(C(=O)[C@H](O)c4ccccc4)CC3)coc12)c1c(Cl)ccc(F)c1Cl [Example 266, (2R)-1-[4-{6-Amino-7-[(1R)-1-(2,6-dichloro-3-fluorophenyl)ethoxy]furo[3,2-c]pyridin-3-yl}-3,6-dihydropyridin-1(2H)-yl]-2-hydroxy-2-phenylethanone] | 500 to 5000 nM | 500 to 5000 nM
6 | CC(C)[C@H](O)C(=O)N1CC=C(c2coc3c(O[C@H](C)c4c(Cl)ccc(F)c4Cl)c(N)ncc23)CC1 [Example 267, (2S)-1-[4-{6-Amino-7-[(1R)-1-(2,6-dichloro-3-fluorophenyl)ethoxy]furo[3,2-c]pyridin-3-yl}-3,6-dihydropyridin-1(2H)-yl]-2-hydroxy-3-methylbutan-1-one] | < 500 nM | 500 to 5000 nM
7 | CC(C)[C@@H](O)C(=O)N1CC=C(c2coc3c(O[C@H](C)c4c(Cl)ccc(F)c4Cl)c(N)ncc23)CC1 [Example 268, (2R)-1-[4-{6-Amino-7-[(1R)-1-(2,6-dichloro-3-fluorophenyl)ethoxy]furo[3,2-c]pyridin-3-yl}-3,6-dihydropyridin-1(2H)-yl]-2-hydroxy-3-methylbutan-1-one] | 500 to 5000 nM | 500 to 5000 nM
8 | C[C@@H](Oc1c(N)ncc2c(C3=CCN(C(=O)[C@H](O)C(F)(F)F)CC3)coc12)c1c(Cl)ccc(F)c1Cl [Example 269, (2S)-1-[4-{6-Amino-7-[(1R)-1-(2,6-dichloro-3-fluorophenyl)ethoxy]furo[3,2-c]pyridin-3-yl}-3,6-dihydropyridin-1(2H)-yl]-3,3,3-trifluoro-2-hydroxypropan-1-one] | 500 to 5000 nM | 500 to 5000 nM
9 | C[C@@H](Oc1c(N)ncc2c(C3=CCN(C(=O)C(O)C(F)(F)F)CC3)coc12)c1c(Cl)ccc(F)c1Cl (stereo partly drawn) [Example 270, 1-[4-{6-Amino-7-[(1R)-1-(2,6-dichloro-3-fluorophenyl)ethoxy]furo[3,2-c]pyridin-3-yl}-3,6-dihydropyridin-1(2H)-yl]-3,3,3-trifluoro-2-hydroxypropan-1-one] | 500 to 5000 nM | < 500 nM
10 | C[C@@H](Oc1c(N)ncc2c(-c3cnn(C4CCN(C(N)=O)CC4)c3)coc12)c1c(Cl)ccc(F)c1Cl [Example 272, 4-(4-{6-Amino-7-[(1R)-1-(2,6-dichloro-3-fluorophenyl)ethoxy]furo[3,2-c]pyridin-3-yl}-1H-pyrazol-1-yl)piperidine-1-carboxamide] | 500 to 5000 nM | 500 to 5000 nM
